Laboratory results as given in patent US4559323A, “A41030 Antibiotics” (Eli Lilly and Company, priority 1984, dated 1985).
Like-named read-outs stand apart in the source and are kept apart here.

Tests used:
[1] = Electrometric titration (pKa); format: physicochemical; details: electrometric titration in 66% dimethylformamide in water
Solubility in solvents = format: physicochemical; details: solvents as named
Source text: The seven antibiotic factors are recovered from the fermentation and are obtained as a mixture, the A41030 complex. It will be recognized that the ratio of the factors in the A41030 complex will vary, depending upon the fermentation conditions used. The individual factors […], and G are separated and isolated as individual compounds, as hereinafter described.

Staphylococcus aureus = experiment: Agar-dilution MIC; format: cell-based; details: Table 17, 24 hours
Hemophilus influenzae = experiment: Agar-dilution MIC; format: cell-based; details: Table 17, 24 hours
[2] = test system: Staphylococcus epidermidis; experiment: Agar-dilution MIC; format: cell-based; details: Table 17, 24 hours
Source text: (§1) The agar-dilution procedure described by the International Collaborative study (ICS) group was used to determine the minimum inhibitory concentrations (MIC's).

Streptococcus pneumoniae = experiment: Agar-dilution MIC; format: cell-based; details: Table 17; 24 hours; Streptococcus pneumoniae Park I
Source text: as §1

Streptococcus pyogenes = experiment: Agar-dilution MIC; format: cell-based; details: Table 17; 24 hours; Streptococcus pyogenes C203
Source text: as §1

[3] = test system: Streptococcus sp. (Group D); experiment: Agar-dilution MIC; format: cell-based; details: Table 17, 24 hours
Source text: as §1

Bacteroides fragilis = experiment: Agar-dilution MIC (anaerobes); format: cell-based; details: Table 14
Source text: as §1

B. thetaiotaomicron = format: cell-based; details: Table 14; Bacteroides thetalotaomicron 1438
Source text: as §1

Propionibacterium acnes = experiment: Agar-dilution MIC (anaerobes); format: cell-based; details: Table 14; Propionibacterium acnes 79
Source text: Antibiotic A41030 factors A, B and C have also been tested and found to be active against a genus of anaerobic bacteria identified as Propionibacterium acnes.

Clostridium difficile [4] = format: cell-based
Source text: The A41030 antibiotic factors A, B, C, D, E, F, and G, are also active against a number of strains of Clostridium difficile, as determined by the agar-dilution method.

Clostridium perfringens = format: cell-based; details: Table 14; Clostridium perfringens 81
Clostridium septicum = experiment: Agar-dilution MIC (anaerobes); format: cell-based; details: Table 14; Clostridium septicum 1128
Eubacterium aerofaciens = experiment: Agar-dilution MIC (anaerobes); format: cell-based; details: Table 14; Eubacterium aerofaciens 1235
Peptococcus prevoti = experiment: Agar-dilution MIC (anaerobes); format: cell-based; details: Table 14; Peptococcus prevoti 1281
[5] = test system: Peptostreptococcus anaerobius; experiment: Agar-dilution MIC (anaerobes); format: cell-based; details: Table 14; Peptostreptococcus anaerobius 1428
[6] = test system: Peptostreptococcus intermedius; experiment: Agar-dilution MIC (anaerobes); format: cell-based; details: Table 14; Peptostreptococcus intermedius 1264
[7] = test system: Bacteroides melaninogenicus; experiment: Agar-dilution MIC (anaerobes); format: cell-based; details: Table 14; Bacteroides melaninogenicus 2736
Fusobacterium symbiosum = experiment: Agar-dilution MIC (anaerobes); format: cell-based; details: Table 14; Fusobacterium symbiosum 1470
[8] = test system: Fusobacterium necrophorum; experiment: Agar-dilution MIC (anaerobes); format: cell-based; details: Table 14; Fusobacterium necrophorum 6054A
Salmonella typhi = experiment: Agar-dilution MIC; format: cell-based; details: Table 17, 24 hours
S. pneumoniae = experiment: Experimental bacterial infection in mice, subcutaneous ED50; format: in vivo; details: two doses subcutaneously
Description: (§2) All of the A41030 factors tested have shown in vivo antimicrobial activity against experimental bacterial infections. When two doses of test compound were administered subcutaneously to mice in illustrative infections, the activity observed is measured as an ED50 value [effective dose in mg./kg. to protect fifty percent of the test animals: See Warren Wick, et al., J. Bacteriol. 81, 233-235 (1961)].

S. pyogenes = experiment: as above; format: in vivo; details: two doses subcutaneously
Description: as §2

Staph. aureus = experiment: as above; format: in vivo; details: two doses subcutaneously
Description: as §2

Bacteroides corrodens = experiment: Agar-dilution MIC (anaerobes); format: cell-based; details: Table 14; Bacteroides corrodens 1874
Bacteroides vulgatis = experiment: Agar-dilution MIC (anaerobes); format: cell-based; details: Table 14; Bacteroides vulgatis 1211
[9] = test system: Peptococcus asaccharolyticus; experiment: Agar-dilution MIC (anaerobes); format: cell-based; details: Table 14; Peptococcus asaccharolyticus 1302
Klebsiella pneumoniae = experiment: Agar-dilution MIC; format: cell-based; details: Table 17; 24 hours; Klebsiella pneumoniae X26
Clostridium difficile [10] = format: cell-based; details: Table 14; Clostridium difficile 2994
[11] = Staphylococcus epidermidis EPI1
[12] = Table 16, C. difficile WAL-2112
[13] = Table 16, C. difficile WAL-3657
[14] = Table 16, C. difficile WAL-4268

A41030 factor F
pKa, first titratable group [1]: about 5.4
pKa, second titratable group [1]: ~7.1
Solubility (Solubility in solvents): soluble in the same solvents as factor A
MIC (Staphylococcus aureus; Staphylococcus aureus 3055): 0.5 µg/mL
MIC (Staphylococcus aureus; Staphylococcus aureus S13E): 1 µg/mL
MIC (Staphylococcus aureus; Staphylococcus aureus V41): 0.5 µg/mL
MIC (Staphylococcus aureus; Staphylococcus aureus X400): 1 µg/mL
MIC (Hemophilus influenzae; Haemophilus influenzae 76): 32 µg/mL
MIC (Hemophilus influenzae; Haemophilus influenzae C.L.): 32 µg/mL
MIC [2, 11]: 0.25 µg/mL
MIC (Streptococcus pneumoniae): 2 µg/mL
MIC (Streptococcus pyogenes): 2 µg/mL
MIC ([3]; Streptococcus sp. Group D 9960): 4 µg/mL
MIC ([3]; Streptococcus sp. Group D X66): 4 µg/mL
MIC (Bacteroides fragilis; Bacteroides fragilis 111): 32 µg/mL
MIC (Bacteroides fragilis; Bacteroides fragilis 1877): 32 µg/mL
MIC (Bacteroides fragilis; Bacteroides fragilis 1936B): 32 µg/mL
MIC (B. thetaiotaomicron): 64 µg/mL
MIC (Propionibacterium acnes): 1.0 µg/mL
MIC (Clostridium difficile [4]): 1 µg/mL
MIC (Clostridium difficile [4]; Table 16, C. difficile 78): 1.0 µg/mL
MIC (Clostridium difficile [4]; Table 16, C. difficile 107B): 1.0 µg/mL
MIC (Clostridium difficile [4]; Table 16, C. difficile 111F): 2 µg/mL
MIC (Clostridium difficile [4]; Table 16, C. difficile 1153): 2 µg/mL
MIC (Clostridium difficile [4]; Table 16, C. difficile 2634): 2 µg/mL
MIC (Clostridium difficile [4]; Table 16, C. difficile 3424-5B): 1.0 µg/mL
MIC (Clostridium difficile [4]; Table 16, C. difficile 3816): 1.0 µg/mL
MIC (Clostridium difficile [4]; Table 16, C. difficile 3950): 1.0 µg/mL
MIC (Clostridium difficile [4]; Table 16, C. difficile 6890): 1.0 µg/mL
MIC (Clostridium difficile [4]; Table 16, C. difficile 8484): 1.0 µg/mL
MIC (Clostridium difficile [4]; Table 16, C. difficile A-194): 1.0 µg/mL
MIC (Clostridium difficile [4]; Table 16, C. difficile A-195): 1.0 µg/mL
MIC (Clostridium difficile [4]; Table 16, C. difficile A-196): 2 µg/mL
MIC (Clostridium difficile [4]; Table 16, C. difficile A-279): 1.0 µg/mL
MIC (Clostridium difficile [4]; Table 16, C. difficile A-280): 1.0 µg/mL
MIC (Clostridium difficile [4]; Table 16, C. difficile A-281): 2 µg/mL
MIC (Clostridium difficile [4]; [12]): 1.0 µg/mL
MIC (Clostridium difficile [4]; [13]): 1.0 µg/mL
MIC (Clostridium difficile [4]; [14]): 1.0 µg/mL
MIC (Clostridium perfringens): 1.0 µg/mL
MIC (Clostridium septicum): 1.0 µg/mL
MIC (Eubacterium aerofaciens): 1.0 µg/mL
MIC (Peptococcus prevoti): 32 µg/mL
MIC [5]: 32 µg/mL
MIC [6]: 1.0 µg/mL
MIC [7]: 1.0 µg/mL
MIC (Fusobacterium symbiosum): 1.0 µg/mL
MIC [8]: 1.0 µg/mL
MIC (Salmonella typhi; Salmonella typhi 1335): > 128 µg/mL
MIC (Salmonella typhi; Salmonella typhi X514): > 128 µg/mL
ED50 (S. pneumoniae): > 5.0 mg/kg
ED50 (S. pyogenes): > 5.0 mg/kg
ED50 (Staph. aureus): < 0.31 mg/kg
MIC (Bacteroides corrodens): 32 µg/mL
MIC (Bacteroides vulgatis): 32 µg/mL
MIC [9]: ≤ 0.25 µg/mL

A41030 factor G
pKa, first titratable group [1]: about 5.4
pKa, second titratable group [1]: ~7.0
Solubility (Solubility in solvents): soluble in the same solvents as is factor A
MIC (Hemophilus influenzae; Haemophilus influenzae 76): 32 µg/mL
MIC (Hemophilus influenzae; Haemophilus influenzae C.L.): 32 µg/mL
MIC [2, 11]: 0.5 µg/mL
MIC ([2]; Staphylococcus epidermidis EPI2): 0.5 µg/mL
MIC (Streptococcus pneumoniae): 2 µg/mL
MIC (Streptococcus pyogenes): 2 µg/mL
MIC ([3]; Streptococcus sp. Group D 9960): 4 µg/mL
MIC ([3]; Streptococcus sp. Group D X66): 4 µg/mL
MIC (Bacteroides fragilis; Bacteroides fragilis 111): 32 µg/mL
MIC (Bacteroides fragilis; Bacteroides fragilis 1877): 32 µg/mL
MIC (Bacteroides fragilis; Bacteroides fragilis 1936B): 64 µg/mL
MIC (B. thetaiotaomicron): 64 µg/mL
MIC (Propionibacterium acnes): 1.0 µg/mL
MIC (Clostridium difficile [4]; Table 16, C. difficile 78): 1.0 µg/mL
MIC (Clostridium difficile [4]; Table 16, C. difficile 107B): 1.0 µg/mL
MIC (Clostridium difficile [4]; Table 16, C. difficile 111F): 1.0 µg/mL
MIC (Clostridium difficile [4]; Table 16, C. difficile 1153): 1.0 µg/mL
MIC (Clostridium difficile [4]; Table 16, C. difficile 2634): 1.0 µg/mL
MIC (Clostridium difficile [4]; Table 16, C. difficile 3424-5B): 1.0 µg/mL
MIC (Clostridium difficile [4]; Table 16, C. difficile 3816): 1.0 µg/mL
MIC (Clostridium difficile [4]; Table 16, C. difficile 3950): 1.0 µg/mL
MIC (Clostridium difficile [4]; Table 16, C. difficile 6890): 1.0 µg/mL
MIC (Clostridium difficile [4]; Table 16, C. difficile 8484): 1.0 µg/mL
MIC (Clostridium difficile [4]; Table 16, C. difficile A-194): 1.0 µg/mL
MIC (Clostridium difficile [4]; Table 16, C. difficile A-195): 1.0 µg/mL
MIC (Clostridium difficile [4]; Table 16, C. difficile A-196): 1.0 µg/mL
MIC (Clostridium difficile [4]; Table 16, C. difficile A-279): 1.0 µg/mL
MIC (Clostridium difficile [4]; Table 16, C. difficile A-280): 1.0 µg/mL
MIC (Clostridium difficile [4]; Table 16, C. difficile A-281): 1.0 µg/mL
MIC (Clostridium difficile [4]; [12]): 1.0 µg/mL
MIC (Clostridium difficile [4]; [13]): 1.0 µg/mL
MIC (Clostridium difficile [4]; [14]): 1.0 µg/mL
MIC (Clostridium perfringens): 2 µg/mL
MIC (Clostridium septicum): 2 µg/mL
MIC (Eubacterium aerofaciens): 2 µg/mL
MIC (Peptococcus prevoti): 2 µg/mL
MIC [5]: ≤ 0.5 µg/mL
MIC [6]: 2 µg/mL
MIC [7]: 64 µg/mL
MIC (Fusobacterium symbiosum): 2 µg/mL
MIC [8]: 2 µg/mL
MIC (Klebsiella pneumoniae): 64 µg/mL
MIC (Salmonella typhi; Salmonella typhi 1335): > 128 µg/mL
MIC (Salmonella typhi; Salmonella typhi X514): > 128 µg/mL
MIC (Bacteroides corrodens): 32 µg/mL
MIC (Bacteroides vulgatis): 64 µg/mL
MIC (Clostridium difficile [10]): 2 µg/mL
MIC [9]: 1.0 µg/mL
